What was measured:
[1] = system: mouse; assay: Toxicity test, intraperitoneal; type: in vivo; conditions: 100 mg/kg
[2] = system: bone marrow cells of BALB/c mice; assay: Enhancing proliferation of bone marrow cells of mice (MTT reduction method); type: cell-based, mouse; conditions: concentration giving 1.3 or more times the proliferation of the group without test compound; 3 days incubation
Method: To an RPMI 1640 culture medium [Bio-Wittaker Inc. (hereinafter abbreviated as BW), USA] containing 2×10^6 /ml of bone marrow cells of BALB/c mice, 2 mM of L-glutamine, 20 ug/ml of gentamicin (Flow Laboratories, Inc., Scotland), 10% fetal calf serum (BW, USA) was added a test compound in an adequate concentration, which was incubated at 37° C. for 3 days in 5% carbon dioxide in air followed by determination of proliferation of the bone marrow cells by the MTT reduction method [Tada et al., Journal of Immunological Methods, Vol. 93, p.157, 1986].

[3] = system: peripheral blood leukocytes of CDF1/Crj mice; assay: Enhancing the number of leukocytes in cyclophosphamide-treated mice; type: in vivo, mouse; conditions: cyclophosphamide 150 mg/kg p.o., then compound 0.063 mg/kg/day s.c. for 5 days; mice without cyclophosphamide = 100%
Method: Six week old female CDF1/Crj mice (5 animals/group) were subjected to the experiment. […] From the next day, each animal was administered subcutaneously with the compound suspended in 5% glucose at the following dosages for five days once a day. On the next day after completion of the administration, about 100 μl of peripheral blood was collected from orbital vein using an EDTA-treated glass capillary. Then, the number of lekocytes was counted using a automatic cell analyzer (Sysmex K-2000, Toa Medical Electronics, Japan)

Substance	Mortality [1]	Minimal Effective Concentration (MEC) [2]	Number of leukocytes [3]
(2S,6R)-2-amino-6,7-bis(PamO)-4-THT-Gly-Gly-Gly-Glu-Thr-Thr-OH [Compound 3]	No mouse administered intraperitoneally with Compound 3 at a dose of 100 mg/kg was found dead	–	–
(2R,6R)-2-amino-6,7-bis(PamO)-4-THT-Gly-Gly-Gly-Glu-Thr-Thr-OH [Compound 2]	–	< 0.156 ng/mL	102%
(2R,6R)-2-amino-6,7-bis(PamO)-4-THT-NH(CH2)7 CO-Glu-OH hydrochloride [Compound 36]	–	< 0.156 ng/mL	–

Source: patent US5478808A, “2-amino-6,7-dihydroxy-4-thiaheptanoic acid derivatives, production and use thereof” (Takeda Chemical Industries, Ltd., priority 1992, dated 1995)
